Measured values reported in patent US5521155A, “Amides of teicoplanin compounds” (Gruppo Lepetit S.p.A, priority 1985, dated 1996).
Converted amounts (≈) assume the structure as drawn.

Experiments:
[1] = Isoelectric point (pI) by isoelectrofocusing with bioautography detection; assay type: physicochemical; conditions: IEF technique, polyacrylamide gel
Description: The isoelectrofocusing (IEF) technique coupled with bioautography detection has been used for the determination of the pI of representative compounds of the invention using the following materials: AMPHOLINE carrier ampholytes (40% w/v) were purchased from LKB Produketer AB, Bromma, Sweden. Acrylamide, N,N'-methylenbisacrylamide (BIS), N,N,N',N'-tetramethylethylenediamine (TEMED) and ammonium persulfate were from Bio Rad Laboratorie, Richmond, Calif., USA. Glycerol and Antibiotic agar N. 1 (Grove and Randall medium N. 1) were from E. Merck Darmstadt FRG. GEL FIX polyester sheets were purchased from Serva Feinbiochemica Heidelberg. Phenolindo (2,6-dichlorophenol) came from BDH Chemicals Ltd. Poole, England.
IEF was made on gel slab using a LKB MULITPHOR 2117 cell and a Bio-Rad Power Supply Model 1420A. Slabs of 24.5×11.5 cm and 1 mm thickness were prepared on a sheet of GEL FIX. Polyacrylamide gels with a concentration of 8% T and with a cross-linkage of 4% C (30% T stock solution was prepared by dissolving 28.8 g of acrylamide and 1.2 g of bis-acrylamide in 100 ml distilled water), glycerol, 3.5% v/v, 2% AMPHOLINE, 0.05% ammonium persulphate as catalyst and 0.05% TEMED as accelerator. The carrier ampholite composition for 35 ml gelling solution was as follows:
The electrode solutions, as recommended by LKB for the respective pH range, were:
The gel was cooled to 4° C. with the aid of a LKB 2209 refrigerated constant temperature circulator. After prefocusing for 30 min. at 5 W, the samples (20 μl containing 0.2 to 2.5 μg of antibiotic) were loaded into the slot at the cathodic side. Electrofocusing was performed using 10 W constant power and was completed after 3-31/2 hours with a final potential of 1400 V.
The pH values were determined by dividing a portion of the gel into 1 cm sections, and eluting the individual pieces at room temperature with 1 ml of 10 mM KCl prior to pH readings.
The isoelectric point of each antibiotic was determined by interpolation on a curve obtained by plotting pH values versus the distance from the anode.
Polyacrylamide gel was placed on a 3 mm layer of agar medium N. 1 inoculated with 1% of Bacillus subtilis ATCC 6633 spore (0.5 OD at 600 nm). After 10 min the gel was removed and the plate was incubated overnight at 37° C. and examined for inhibition zones. The contrast between the area of lysis and that of bacterial growth was enhanced by use of Phenolindo(2,6-dichlorophenol) 1% w/v (oxidation-reduction indicator).

E. coli SKF 12140 = experiment: In vitro antibacterial activity, standard agar-dilution test (MIC); assay type: cell-based; conditions: inoculum about 10^4 CFU/ml, 18-24 h at 37° C.
Description: (§1) The culture medium ISOSENSITEST BROTH (Oxoid) and the colture medium TODD-[…] BROTH (Difco) are used for growing staphylococci and streptococci, respectively. Broth cultures are diluted so that the final inoculum is about 10^4 colony forming units/ml (CFU/ml).

[2] = tested on: Proteus vulgaris X 19H ATCC 881; experiment: as above; assay type: cell-based; conditions: inoculum about 10^4 CFU/ml, 18-24 h at 37° C.
Description: as §1

[3] = tested on: Pseudomonas aeruginosa ATCC 10145; experiment: as above; assay type: cell-based; conditions: inoculum about 10^4 CFU/ml, 18-24 h at 37° C.
Description: as §1

S. aureus Tour = experiment: as above; assay type: cell-based; conditions: inoculum about 10^4 CFU/ml, 18-24 h at 37° C.
Description: as §1

[4] = tested on: S. epidermidis ATCC 12228; experiment: as above; assay type: cell-based; conditions: inoculum about 10^4 CFU/ml, 18-24 h at 37° C.
Description: as §1

S. faecalis ATCC 7080 = experiment: as above; assay type: cell-based; conditions: inoculum about 10^4 CFU/ml, 18-24 h at 37° C.
Description: as §1

S. pneumoniae UC 41 = experiment: as above; assay type: cell-based; conditions: inoculum about 10^4 CFU/ml, 18-24 h at 37° C.
Description: as §1

S. pyogenes C 203 = experiment: as above; assay type: cell-based; conditions: inoculum about 10^4 CFU/ml, 18-24 h at 37° C.
Description: as §1

S. pyogenes L 49 = experiment: In vivo test in mice experimentally infected with S. pyogenes L 49 (ED50); conditions: mice infected with S. pyogenes L 49; for ED50, route of administration os.: oral
Acid-base titration (pK) = assay type: physicochemical; conditions: acid-base titration in METHYLCELLOSOLVE/H2O 4:1 (v/v), 0.01N KOH; for pK1 / pK2: salt form per Table IV
Description: The following table (Table IV) reports the acid-base titration data of some representative compounds of the invention. The assays were carried out in METHYLCELLOSOLVE/H2 O, 4:1(v/v). A sample is dissolved in METHYLCELLOSOLVE/H2 O, 4:1(v/v) (10 umole in about 20 ml) and then 0.01N HCl (2 ml) is added and the mixture is titrated with 0.01N KOH in the same solvent mixture.

| SMILES | Isoelectric point (pI) [1] | MIC E. coli SKF 12140 (E. coli SKF 12140) [µg/mL] | MIC Proteus vulgaris X 19H ATCC 881 [2] [µg/mL] | MIC Pseudomonas aeruginosa ATCC 10145 [3] [µg/mL] | MIC S. aureus Tour (S. aureus Tour) [µg/mL] | MIC S. epidermidis ATCC 12228 [4] [µg/mL] | MIC S. faecalis ATCC 7080 (S. faecalis ATCC 7080) [µg/mL] | MIC S. pneumoniae UC 41 (S. pneumoniae UC 41) [µg/mL] | MIC S. pyogenes C 203 (S. pyogenes C 203) [µg/mL] | ED50, route of administration os. (S. pyogenes L 49) [mg/kg] | ED50, route of administration s.c (S. pyogenes L 49) [mg/kg] | pK1 (Acid-base titration (pK)) | pK2 (Acid-base titration (pK)) | pK3 (Acid-base titration (pK); value not in brackets) |
| --- | --- | --- | --- | --- | --- | --- | --- | --- | --- | --- | --- | --- | --- | --- |
| Cl.Cl.NC1C(=O)NC2Cc3ccc(c(Cl)c3)Oc3cc4cc(c3O)Oc3ccc(cc3Cl)C(O)C3NC(=O)C(NC(=O)C4NC(=O)C(NC2=O)c2cc(O)cc(c2)Oc2cc1ccc2O)c1ccc(O)c(c1)-c1c(O)cc(O)cc1C(C(=O)NCCCN1CCOCC1)NC3=O (centres unmarked) [Compound 78] | 8.1 | 8 | 64 | 32 | 0.06 | 0.06 | 0.12 | 0.12 | 0.06 | > 300 | 1.4 |  |  |  |
| CN(C)CCCCCCCNC(=O)C1NC(=O)C2NC(=O)C(NC(=O)C3NC(=O)C4NC(=O)C(Cc5ccc(c(Cl)c5)Oc5cc3cc(c5O)Oc3ccc(cc3Cl)C2O)NC(=O)C(N)c2ccc(O)c(c2)Oc2cc(O)cc4c2)c2ccc(O)c(c2)-c2c(O)cc(O)cc21 (centres unmarked) [Compound 101] | 9.1 | 16 (≈ 11.9 µM) | 128 (≈ 95.6 µM) | 128 (≈ 95.6 µM) | 0.06 (≈ 0.0448 µM) | 0.06 (≈ 0.0448 µM) | 0.12 (≈ 0.0896 µM) | 0.12 (≈ 0.0896 µM) | 0.06 (≈ 0.0448 µM) |  |  |  |  |  |
| CC(=O)NC1C(OC2c3ccc(c(Cl)c3)Oc3cc4cc(c3O)Oc3ccc(cc3Cl)CC3NC(=O)C(N)c5ccc(O)c(c5)Oc5cc(O)cc(c5)C(NC3=O)C(=O)NC4C(=O)NC3C(=O)NC2C(=O)NC(C(=O)NCCN2CCOCC2)c2cc(O)cc(O)c2-c2cc3ccc2O)OC(CO)C(O)C1O (centres unmarked) [Compound 14] | 8.0 | > 128 | > 128 | > 128 | 0.5 (≈ 0.33 µM) | 0.12 (≈ 0.0792 µM) | 0.5 (≈ 0.33 µM) | 1 (≈ 0.66 µM) | 0.5 (≈ 0.33 µM) |  |  | 5.3 | 6.8 |  |
| COC(=O)C(CCCCN)NC(=O)C1NC(=O)C2NC(=O)C(NC(=O)C3NC(=O)C4NC(=O)C(Cc5ccc(c(Cl)c5)Oc5cc3cc(c5O)Oc3ccc(cc3Cl)C2O)NC(=O)C(N)c2ccc(O)c(c2)Oc2cc(O)cc4c2)c2ccc(O)c(c2)-c2c(O)cc(O)cc21.Cl.Cl (centres unmarked) [Compound 73] |  | 4 | 32 | 32 | 0.06 | 0.06 | 0.12 | 0.06 | 0.12 | > 300 | 0.81 |  | 6.5 | 8.9 |
| NC1C(=O)NC2Cc3ccc(c(Cl)c3)Oc3cc4cc(c3O)Oc3ccc(cc3Cl)C(O)C3NC(=O)C(NC(=O)C4NC(=O)C(NC2=O)c2cc(O)cc(c2)Oc2cc1ccc2O)c1ccc(O)c(c1)-c1c(O)cc(O)cc1C(C(=O)NCCCCCC(=O)NC1C(O)OC(CO)C(O)C1O)NC3=O (centres unmarked) [Compound 31] | 7.9 | 64 (≈ 43.4 µM) | > 128 | > 128 | 0.5 (≈ 0.339 µM) | 0.063 (≈ 0.0428 µM) | 0.25 (≈ 0.17 µM) | 0.25 (≈ 0.17 µM) | 0.12 (≈ 0.0815 µM) | > 300 | 2.9 | 6.45 |  |  |
| Cl.Cl.NC1C(=O)NC2Cc3ccc(c(Cl)c3)Oc3cc4cc(c3O)Oc3ccc(cc3Cl)C(O)C3NC(=O)C(NC(=O)C4NC(=O)C(NC2=O)c2cc(O)cc(c2)Oc2cc1ccc2O)c1ccc(O)c(c1)-c1c(O)cc(O)cc1C(C(=O)NC1CN2CCC1CC2)NC3=O (centres unmarked) [Compound 83] | 8.9 | 8 | 64 | 32 | 0.12 | 0.06 | 0.12 | 0.06 | 0.06 | > 300 | 0.46 |  |  |  |
| NCCCCC(NC(=O)C1NC(=O)C2NC(=O)C(NC(=O)C3NC(=O)C4NC(=O)C(Cc5ccc(c(Cl)c5)Oc5cc3cc(c5O)Oc3ccc(cc3Cl)C2O)NC(=O)C(N)c2ccc(O)c(c2)Oc2cc(O)cc4c2)c2ccc(O)c(c2)-c2c(O)cc(O)cc21)C(=O)O (centres unmarked) [Compound 84] | 7.8 | 64 (≈ 48.2 µM) | > 128 | > 128 | 0.12 (≈ 0.0904 µM) | 0.06 (≈ 0.0452 µM) | 0.12 (≈ 0.0904 µM) | 0.12 (≈ 0.0904 µM) | 0.12 (≈ 0.0904 µM) | > 300 | 1.65 |  |  |  |
| CN(C)CCCCCNC(=O)C1NC(=O)C2NC(=O)C(NC(=O)C3NC(=O)C4NC(=O)C(Cc5ccc(c(Cl)c5)Oc5cc3cc(c5O)Oc3ccc(cc3Cl)C2O)NC(=O)C(N)c2ccc(O)c(c2)Oc2cc(O)cc4c2)c2ccc(O)c(c2)-c2c(O)cc(O)cc21 (centres unmarked) [Compound 100] | 9.0 | 8 (≈ 6.1 µM) | 128 (≈ 97.6 µM) | 64 (≈ 48.8 µM) | 0.06 (≈ 0.0458 µM) | 0.06 (≈ 0.0458 µM) | 0.12 (≈ 0.0915 µM) | 0.12 (≈ 0.0915 µM) | 0.06 (≈ 0.0458 µM) |  |  |  |  |  |
